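96-well plates; 48 h exposure; 5 concentrations. Endpoints by linear interpolation between flanking doses. Not reached: highest tested concentration assigned. GI50 = concentration required for 50% inhibition of growth. TGI: total growth inhibition.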
What was measured:
Test in all cases: inhibition of tumour cell growth, NCI panel, 48 h
[1] = test system: 786-0 renal
[2] = test system: A498 renal
[3] = test system: A549 NSCLC
[4] = test system: ACHN renal
[5] = test system: BT-549 breast
[6] = test system: CAKI-1 renal
[7] = test system: CCRF-CEM leukemia
[8] = test system: COLO 205 colon
[9] = test system: EKVX NSCLC
[10] = test system: HCC-2998 colon
[11] = test system: HCT-116 colon
[12] = test system: HCT-15 colon
[13] = test system: HS 578T breast
[14] = test system: HT29 colon
[15] = test system: IGROV1 ovarian
[16] = test system: K-562 leukemia
[17] = test system: KM12 colon
[18] = test system: LOX IMVI melanoma
[19] = test system: M14 melanoma
[20] = test system: MCF7 breast
[21] = test system: MDA-MB-231 breast
[22] = test system: MDA-MB-435
[23] = test system: MOLT-4 leukemia
[24] = test system: NCI-H226 lung
[25] = test system: NCI-H23 lung
[26] = test system: NCI-H460 lung
[27] = test system: NCI-H522 lung
[28] = test system: NCI/ADR-RES ovarian
[29] = test system: OVCAR-3 ovarian
[30] = test system: OVCAR-5 ovarian
[31] = test system: OVCAR-8 ovarian
[32] = test system: PC-3 prostate
[33] = test system: RPMI-8226 leukemia
[34] = test system: RXF 393 renal
[35] = test system: SF-268 CNS
[36] = test system: SF-295 CNS
[37] = test system: SK-MEL-2 melanoma
[38] = test system: SK-MEL-5 melanoma
[39] = test system: SK-OV-3 ovarian
[40] = test system: SN12C renal
[41] = test system: SNB-19 CNS
[42] = test system: SW-620 colon
[43] = test system: T-47D breast
[44] = test system: TK-10 renal
[45] = test system: U251 CNS
[46] = test system: UACC-257 melanoma
[47] = test system: UACC-62 melanoma
[48] = test system: UO-31 renal

`Cc1cn2c(/C=N/N=C(N)N)c(-c3ccsc3)nc2s1` gave a GI50 [1] of 5.89 µM, a TGI [1] of 19.7 µM and a GI50 [2] of 28.3 µM. For the same compound, the TGI [2] was 43.3 µM, the GI50 [3] was 17.1 µM and the TGI [3] was 34.7 µM. For the same compound, the GI50 [4] was 3.08 µM, the TGI [4] was 13.6 µM and the GI50 [5] was 15 µM. For the same compound, the TGI [5] was 29.5 µM, the GI50 [6] was 17.4 µM and the TGI [6] was 32.7 µM. The GI50 [7] was 2.54 µM, the TGI [7] was 6.21 µM and the GI50 [8] was 3.18 µM. For the same compound, the TGI [8] was 15 µM, the GI50 [9] was 13.8 µM and the TGI [9] was 27.4 µM. For the same compound, the GI50 [10] was 2.34 µM, the TGI [10] was 5.33 µM and the GI50 [11] was 3.14 µM. It also gave a TGI [11] of 12.6 µM, a GI50 [12] of 7.81 µM and a TGI [12] of 21.6 µM. It also gave a GI50 [13] of 13 µM, a TGI [13] of 37.8 µM and a GI50 [14] of 18.6 µM. For the same compound, the TGI [14] was > 100 µM, the GI50 [15] was 14.9 µM and the TGI [15] was 46.3 µM. For the same compound, the GI50 [16] was 3.82 µM, the TGI [16] was > 100 µM and the GI50 [17] was 6.6 µM. The TGI [17] was 29.9 µM, the GI50 [18] was 1.6 µM and the TGI [18] was 3.35 µM. For the same compound, the GI50 [19] was 11.5 µM, the TGI [19] was 37.3 µM and the GI50 [20] was 3.43 µM. It also gave a TGI [20] of 14.8 µM, a GI50 [21] of 3.94 µM and a TGI [21] of 17.1 µM. The GI50 [22] was 11.1 µM, the TGI [22] was 24.6 µM and the GI50 [23] was > 100 µM. The TGI [23] was > 100 µM, the GI50 [24] was 15.5 µM and the TGI [24] was 31.7 µM. The GI50 [25] was 15.8 µM, the TGI [25] was 30.5 µM and the GI50 [26] was 5.29 µM. The TGI [26] was > 100 µM, the GI50 [27] was 28.4 µM and the TGI [27] was > 100 µM. For the same compound, the GI50 [28] was 22.5 µM, the TGI [28] was 51.5 µM and the GI50 [29] was 4.02 µM. For the same compound, the TGI [29] was 13.4 µM, the GI50 [30] was 15.1 µM and the TGI [30] was 28.7 µM. It also gave a GI50 [31] of 16.2 µM, a TGI [31] of 34.4 µM and a GI50 [32] of 7.5 µM. It also gave a TGI [32] of 20.1 µM, a GI50 [33] of 3.69 µM and a TGI [33] of 16 µM. It also gave a GI50 [34] of 17.3 µM, a TGI [34] of 33.5 µM and a GI50 [35] of 14.6 µM. For the same compound, the TGI [35] was 44.3 µM, the GI50 [36] was 9.98 µM and the TGI [36] was 22.9 µM. For the same compound, the GI50 [37] was 28.3 µM, the TGI [37] was > 100 µM and the GI50 [38] was 2.71 µM. The TGI [38] was 5.19 µM, the GI50 [39] was 10.6 µM and the TGI [39] was 25.6 µM. It also gave a GI50 [40] of 2.27 µM, a TGI [40] of 10.9 µM and a GI50 [41] of 7.31 µM. The TGI [41] was 23.7 µM, the GI50 [42] was 5.67 µM and the TGI [42] was 23.3 µM. It also gave a GI50 [43] of 2.7 µM, a TGI [43] of 7.86 µM and a GI50 [44] of 13.4 µM. It also gave a TGI [44] of 27.5 µM, a GI50 [45] of 2.08 µM and a TGI [45] of 5.95 µM. It also gave a GI50 [46] of 18.7 µM, a TGI [46] of 35 µM and a GI50 [47] of 11.3 µM. For the same compound, the TGI [47] was 23.4 µM, the GI50 [48] was 25.2 µM and the TGI [48] was > 100 µM.
